Values joined by “and” are separate entries in the source; they are usually repeats but may differ in a detail not shown here. Equal values may be shown once.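 Interpolation was linear, between the two tested concentrations surrounding the appropriate level; five concentrations were tested over 48 hours in 96-well plates. GI50 = concentration required for 50% inhibition of growth. The concentration for full growth arrest is given as TGI.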
Tests used:
Experiment in all cases: NCI-60 cell line screen, 48 h
786-0 renal = test system: 786-0 renal
A498 renal = test system: A498 renal
HCT-15 colon = test system: HCT-15 colon
HOP-62 NSCLC = test system: HOP-62 NSCLC
HOP-92 NSCLC = test system: HOP-92 NSCLC
HS 578T breast = test system: HS 578T breast
KM12 colon = test system: KM12 colon
OVCAR-8 ovarian = test system: OVCAR-8 ovarian
SK-MEL-2 melanoma = test system: SK-MEL-2 melanoma
U251 CNS = test system: U251 CNS

COc1ccccc1N1CCN(CCc2c[nH]c3cc4c(cc23)OCO4)CC1
GI50 (786-0 renal): 32.4 µM | TGI (786-0 renal): > 100 µM | GI50 (A498 renal): 16.6 µM | TGI (A498 renal): 83 µM | GI50 (HCT-15 colon): 29.6 µM | TGI (HCT-15 colon): > 100 µM | GI50 (HOP-62 NSCLC): 28.6 µM | TGI (HOP-62 NSCLC): > 100 µM | GI50 (HOP-92 NSCLC): 14.3 µM | TGI (HOP-92 NSCLC): > 100 µM | GI50 (HS 578T breast): 20.1 µM | TGI (HS 578T breast): 70.9 µM | GI50 (KM12 colon): 27.3 µM | TGI (KM12 colon): > 100 µM | GI50 (OVCAR-8 ovarian): 42 µM | TGI (OVCAR-8 ovarian): > 100 µM | GI50 (SK-MEL-2 melanoma): 21.3 µM | TGI (SK-MEL-2 melanoma): 56.3 µM | GI50 (U251 CNS): 32.2 µM | TGI (U251 CNS): > 100 µM

CC1(O)CC(c2nc(-c3ccc4ccc(-c5ccccc5)nc4c3)c3c(N)nccn23)C1 (stereo not given)
GI50 (786-0 renal): 15 µM and > 10 µM | TGI (786-0 renal): 53.7 µM and > 10 µM | GI50 (A498 renal): 3.32 µM and 4.55 µM | TGI (A498 renal): 12.8 µM and > 10 µM | GI50 (HCT-15 colon): 4.52 µM and 3.68 µM | TGI (HCT-15 colon): > 79.6 µM | GI50 (HOP-62 NSCLC): 5.75 µM and 7.35 µM | TGI (HOP-62 NSCLC): 50.6 µM and > 10 µM | GI50 (HOP-92 NSCLC): 0.0272 µM and 0.0625 µM | TGI (HOP-92 NSCLC): 1.15 µM and 1.43 µM | GI50 (HS 578T breast): 13.8 µM and 4.28 µM | TGI (HS 578T breast): 51.9 µM and > 10 µM | GI50 (KM12 colon): 4.31 µM and 3.88 µM | TGI (KM12 colon): 19.4 µM and > 10 µM | GI50 (OVCAR-8 ovarian): 9.34 µM and > 10 µM | TGI (OVCAR-8 ovarian): 80 µM and > 10 µM | GI50 (SK-MEL-2 melanoma): 10.1 µM and 6.63 µM | TGI (SK-MEL-2 melanoma): 60.6 µM and > 10 µM | GI50 (U251 CNS): 13.4 µM and > 10 µM | TGI (U251 CNS): 36.3 µM and > 10 µM

Cc1cc(NCc2cc(Nc3ccnc4cc(Cl)ccc34)ccc2F)nc(N2CCN(C)CC2)n1
GI50 (786-0 renal): 1.44 µM | TGI (786-0 renal): 2.88 µM | GI50 (A498 renal): 1.54 µM | TGI (A498 renal): 3.22 µM | GI50 (HCT-15 colon): 1.34 µM | TGI (HCT-15 colon): 3.45 µM | GI50 (HOP-62 NSCLC): 1.62 µM | TGI (HOP-62 NSCLC): 4.79 µM | GI50 (HOP-92 NSCLC): 1.35 µM | TGI (HOP-92 NSCLC): 3.52 µM | GI50 (HS 578T breast): 1.87 µM | TGI (HS 578T breast): 5.21 µM | GI50 (KM12 colon): 2.11 µM | TGI (KM12 colon): 6.5 µM | GI50 (OVCAR-8 ovarian): 3.14 µM | TGI (OVCAR-8 ovarian): 12.9 µM | GI50 (SK-MEL-2 melanoma): 2.03 µM | TGI (SK-MEL-2 melanoma): 3.93 µM | GI50 (U251 CNS): 1.78 µM | TGI (U251 CNS): 4.46 µM

CN(C)CC1C(=O)O[C@H]2[C@H]1CC/C(COC(=O)c1cc3ccccc3[nH]1)=C\CC[C@@]1(C)O[C@@H]21 (stereo not given in full)
GI50 (786-0 renal): 1.69 µM | TGI (786-0 renal): 4.88 µM | GI50 (A498 renal): 11.1 µM | TGI (A498 renal): 23.9 µM | GI50 (HCT-15 colon): 0.629 µM | TGI (HCT-15 colon): 2.28 µM | GI50 (HOP-62 NSCLC): 2.72 µM | TGI (HOP-62 NSCLC): 7.98 µM | GI50 (HOP-92 NSCLC): 1.53 µM | TGI (HOP-92 NSCLC): 3.62 µM | GI50 (HS 578T breast): 2.93 µM | TGI (HS 578T breast): 13.6 µM | GI50 (KM12 colon): 3.23 µM | TGI (KM12 colon): 10.8 µM | GI50 (OVCAR-8 ovarian): 2.13 µM | TGI (OVCAR-8 ovarian): 7.48 µM | GI50 (SK-MEL-2 melanoma): 1.98 µM | TGI (SK-MEL-2 melanoma): 5.51 µM | GI50 (U251 CNS): 2.3 µM | TGI (U251 CNS): 5.71 µM

CNCCNc1c2c(c(NCCNC)c3[nH]ccc13)C(=O)c1ccccc1C2=O
GI50 (786-0 renal): 0.0646 µM | TGI (786-0 renal): 0.821 µM | GI50 (A498 renal): 2.14 µM | TGI (A498 renal): 4.27 µM | GI50 (HCT-15 colon): 0.115 µM | TGI (HCT-15 colon): 0.761 µM | GI50 (HOP-62 NSCLC): 0.135 µM | TGI (HOP-62 NSCLC): 0.543 µM | GI50 (HOP-92 NSCLC): 0.418 µM | TGI (HOP-92 NSCLC): 2.37 µM | GI50 (HS 578T breast): 0.565 µM | TGI (HS 578T breast): 1.65 µM | GI50 (KM12 colon): 0.0892 µM | TGI (KM12 colon): 0.374 µM | GI50 (OVCAR-8 ovarian): 0.0578 µM | TGI (OVCAR-8 ovarian): 0.393 µM | GI50 (SK-MEL-2 melanoma): 0.581 µM | TGI (SK-MEL-2 melanoma): 2.55 µM | GI50 (U251 CNS): 0.0587 µM | TGI (U251 CNS): 0.615 µM

— PubChem BioAssay (NCI)
